Measured values from patent US20040019188A1, “Targeting through integrins” (priority 2000, published 2004).

Key:
HEp-2 cells [1] = test: Competitive inhibition of HEp-2 cell attachment to (SPKR)4inv coated wells; assay type: cell-based, human; settings: wells coated with (SPKR)4inv
Description: (§1) Cells were harvested with trypsin-EDTA and resuspended in medium containing soybean trypsin inhibitor. After centrifugation, the cell pellet was resuspended in medium containing 20 mM HEPES pH 7.5, 4 g/l BSA. For inhibition studies, 3×10^4 cells were incubated with increasing concentrations of SPKR4-inv protein for 30 min at 22° C.

HEp-2 cells [2] = test: Competitive inhibition of HEp-2 cell attachment to fibronectin coated wells; assay type: cell-based, human
Description: as §1

Row | Substance | ID30 (concentration of competitor that results in 30% inhibition of cell attachment) (HEp-2 cells [1]) | ID30 compared with (SPKR)4inv (HEp-2 cells [2]; fibronectin coated wells) | ID30 (concentration of competitor that results in 30% inhibition of cell attachment) (HEp-2 cells [2]; wells coated with fibronectin)
1 | A3β1: Recombinant soluble α3β1 integrin (Eble, 1998) | 0.050 µM |  | 
2 | RGDS | 170 µM | three orders of magnitude higher | 170 µM
